# Literature values in patent WO2011103442A2, “Synthesis of the potent immunosuppressant agents dalesconol a and b” (Columbia University in the City of New York, priority 2010, dated 2011).
# Assays:
# [1] = compared with cyclosporin A
# acetylcholinesterase = acetylcholinesterase (Homo sapiens, UniProt P22303)
# [2] = tested on: ConA-induced proliferation of mouse spleen cells; conditions: in vitro
# [3] = for IC50, immunosuppressive activity: as repeated in the Discussion
# Chain of acetylcholinesterase (P22303 32-614): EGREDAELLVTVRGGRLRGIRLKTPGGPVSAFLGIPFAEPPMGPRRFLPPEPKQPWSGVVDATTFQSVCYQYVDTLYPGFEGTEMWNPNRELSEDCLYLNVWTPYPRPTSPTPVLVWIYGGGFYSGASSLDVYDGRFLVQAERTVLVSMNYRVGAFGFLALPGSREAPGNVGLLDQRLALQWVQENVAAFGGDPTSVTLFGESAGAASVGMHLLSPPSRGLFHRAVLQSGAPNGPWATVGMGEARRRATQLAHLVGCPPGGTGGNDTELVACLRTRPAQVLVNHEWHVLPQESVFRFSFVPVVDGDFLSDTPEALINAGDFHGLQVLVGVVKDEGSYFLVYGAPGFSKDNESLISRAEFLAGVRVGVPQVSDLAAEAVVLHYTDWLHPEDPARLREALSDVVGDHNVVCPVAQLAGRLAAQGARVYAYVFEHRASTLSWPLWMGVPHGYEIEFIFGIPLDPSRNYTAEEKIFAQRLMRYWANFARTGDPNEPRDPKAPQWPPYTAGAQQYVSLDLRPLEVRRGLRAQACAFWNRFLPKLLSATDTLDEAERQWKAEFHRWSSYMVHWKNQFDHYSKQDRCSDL
Compound,background cytotoxicity relative to cyclosporin A [1],acetylcholinesterase inhibition (acetylcholinesterase),"selectivity factor, activity versus cytotoxic effects [2]","IC50, immunosuppressive activity [3]",immunosuppressive potency of racemic mixture versus separated enantiomers ([3]; racemic mixture)
O=C1CC2CC(=O)c3c(O)cccc3C23C(=C2C=CC(=O)c4c(O)ccc3c42)c2cccc(O)c21 (stereo not drawn) [dalesconol A],significantly reduced background cytotoxicity,potent acetylcholinesterase inhibitor,greater than 500,0.16 pg/mL,more potent than their separated enantiomers
cyclosporin A [reference compound],,,,0.06 pg/mL,
